Assay results taken from PubChem BioAssay AID1259411 (Chemical Carcinogenesis Research Information System (CCRIS), 2018).
The source made the active and inactive calls. The rule behind the calls is not given here.

System: rodent carcinogenicity bioassays, tumor incidence
Test: CCRIS carcinogenicity studies
Settings: Dose: 0, Dose: 0
Text: The CCRIS database contains chemical records with carcinogenicity, mutagenicity, tumor promotion, and tumor inhibition test results. It was developed by the National Cancer Institute (NCI). Data are derived from studies cited in primary journals, current awareness tools, NCI reports, and other sources. Test results have been reviewed by experts in carcinogenesis and mutagenesis.
CCRIS provides historical information from the years 1985 - 2011. It is no longer updated.
This is an archive assay for CCRIS carcinogenicity studies.

Structure (SMILES): COP(=O)(OC)OC
- carcinogen call (Species: MOUSE, Strain/Sex: B6C3F1/FEMALE, Route: GAVAGE, 250, 500 MG/KG 3/WK FOR 103 WK, 250, 500 MG/KG 3/WK FOR 103 WK, Tumor Site: Type of Lesion: UTERUS (ENDOMETRIUM): ADENOCARCINOMA (NOS)): active; positive
- carcinogen call (Species: MOUSE, Strain/Sex: B6C3F1/MALE, Route: GAVAGE, 250, 500 MG/KG 3/WK FOR 103 WK, 250, 500 MG/KG 3/WK FOR 103 WK): inactive; negative
- carcinogen call (Species: RAT, Strain/Sex: F344/FEMALE, Route: GAVAGE, 50, 100 MG/KG 3/WK FOR 104 WK (STUDY DURATION: 105 WK), 50, 100 MG/KG 3/WK FOR 104 WK (STUDY DURATION: 105 WK)): inactive; negative
- carcinogen call (Species: RAT, Strain/Sex: WISTAR/FEMALE, Route: ORAL, 1, 10, 100 MG/KG/D IN DRINKING WATER FOR DURATION OF STUDY, HIGH DOSE REDUCED TO 50 MG/KG IN WK 54 (STUDY DURATION: 3, 1, 10, 100 MG/KG/D IN DRINKING WATER FOR DURATION OF STUDY, HIGH DOSE REDUCED TO 50 MG/KG IN WK 54 (STUDY DURATION: 3): inactive; negative
- carcinogen call (Species: RAT, Strain/Sex: WISTAR/MALE, Route: ORAL, 1, 10, 100 MG/KG/D IN DRINKING WATER FOR DURATION OF STUDY, HIGH DOSE REDUCED TO 50 MG/KG IN WK 54 (STUDY DURATION: 3, 1, 10, 100 MG/KG/D IN DRINKING WATER FOR DURATION OF STUDY, HIGH DOSE REDUCED TO 50 MG/KG IN WK 54 (STUDY DURATION: 3): inactive; negative

Structure (SMILES): Cc1c2ccccc2c(CO)c2ccc3ccccc3c12
- carcinogen call (Species: MOUSE, Strain/Sex: B6C3F1/MALE, Route: INTRAPERITONEAL, 0.0025, 0.01, 0.03 UMOL/G IN 10 µL/G TRIOCTANOIN D 12 OF AGE (STUDY DURATION: 10 MO), 0.0025, 0.01, 0.03 UMOL/G IN 10 µL/G TRIOCTANOIN D 12 OF AGE (STUDY DURATION: 10 MO), Tumor Site: Type of Lesion: LIVER: HEPATOMA): active; positive
- carcinogen call (Species: MOUSE, Strain/Sex: B6C3F1/MALE, Route: INTRAPERITONEAL, 0.0025 UMOL/G IN 10 µL TRIOCTANOIN ON D 12, 16, 20 AND 24 OF AGE (STUDY DURATION: 12 MO), Tumor Site: Type of Lesion: LIVER: HEPATOMA): active; positive
- carcinogen call (Species: MOUSE, Strain/Sex: B6C3F1/MALE, Route: INTRAPERITONEAL, 0.0075, 0.015, 0.03 UMOL/G IN 10 µL/G TRIOCTANOIN ONCE ON D 12 OF AGE (STUDY DURATION: 10 MO), 0.0075, 0.015, 0.03 UMOL/G IN 10 µL/G TRIOCTANOIN ONCE ON D 12 OF AGE (STUDY DURATION: 10 MO), Tumor Site: Type of Lesion: LIVER: HEPATOMA): active; positive
- carcinogen call (Species: MOUSE, Strain/Sex: B6C3F1/MALE, Route: INTRAPERITONEAL, 0.01, 0.03, 0.06, UMOL/G IN 5 µL/G DMSO ONCE ON D 12 AGE (STUDY DURATION: 10 MO), 0.01, 0.03, 0.06, UMOL/G IN 5 µL/G DMSO ONCE ON D 12 AGE (STUDY DURATION: 10 MO), Tumor Site: Type of Lesion: LIVER: HEPATOMA): active; positive
- carcinogen call (Species: MOUSE, Strain/Sex: B6C3F1/MALE, Route: INTRAPERITONEAL, 0.03, 0.08, 0.25 UMOL/G IN 10 µL/G TRIOCTANOIN ONCE AT 12 D OF AGE (STUDY DURATION: 8.5 MO), 0.03, 0.08, 0.25 UMOL/G IN 10 µL/G TRIOCTANOIN ONCE AT 12 D OF AGE (STUDY DURATION: 8.5 MO), Tumor Site: Type of Lesion: LIVER: HEPATOMA): active; positive
- carcinogen call (Species: MOUSE, Strain/Sex: STRAIN-A/FEMALE, Route: INTRAPERITONEAL, 0.01, 0.03, 0.06 UMOL/G IN 5 µL DMSO/G ONCE AT 4-6 WK OF AGE (STUDY DURATION: 6 MO), 0.01, 0.03, 0.06 UMOL/G IN 5 µL DMSO/G ONCE AT 4-6 WK OF AGE (STUDY DURATION: 6 MO), Tumor Site: Type of Lesion: LUNG: ADENOMA): active; positive
- carcinogen call (Species: RAT, Strain/Sex: SPRAGUE-DAWLEY/FEMALE, Route: SUBCUTANEOUS, 0.2 UMOL 3/WK FOR 20 DOSES (STUDY DURATION: 52 WK), Tumor Site: Type of Lesion: INJECTION SITE: SARCOMA): active; positive
- carcinogen call (Species: RAT, Strain/Sex: SPRAGUE-DAWLEY/FEMALE, Route: SUBCUTANEOUS, 2 UMOL IN 0.25 ML TRIOCTANOIN INTO LEFT HIND LEG AT ABOUT 40 D OF AGE FOLLOWED BY A SECOND DOSE 6 D LATER (STUDY DURA): inactive; negative
- carcinogen call (Species: RAT, Strain/Sex: SPRAGUE-DAWLEY/FEMALE, Route: SUBCUTANEOUS, 2 UMOL IN 0.25 ML TRIOCTANOIN ONCE INTO LEFT HIND LEG AT ABOUT 40 D OF AGE (STUDY DURATION: 16 MO)): inactive; negative

Structure (SMILES): CN(CCCC(O)c1cccnc1)N=O (stereo not drawn)
- carcinogen call (Species: MOUSE, Strain/Sex: STRAIN-A/FEMALE, Route: INTRAPERITONEAL, 10, 50 UMOL TOTAL DOSE ADMINISTERED IN SUBDOSES 3/WK FOR 7 WK (STUDY DURATION: 37 WK), 10, 50 UMOL TOTAL DOSE ADMINISTERED IN SUBDOSES 3/WK FOR 7 WK (STUDY DURATION: 37 WK), Tumor Site: Type of Lesion: LUNG: TUMOR): active; positive
- carcinogen call (Species: RAT, Strain/Sex: F344/MALE, Route: ORAL, 5 PPM IN DRINKING WATER FOR DURATION OF STUDY (TOTAL DOSE: 0; 0.69 MMOL/KG) (STUDY DURATION: 112 WK), 5 PPM IN DRINKING WATER FOR DURATION OF STUDY (TOTAL DOSE: 0; 0.69 MMOL/KG) (STUDY DURATION: 112 WK), Tumor Site: Type of Lesion: LUNG: ADENOCARCINOMA, ADENOSQUAMOUS CARCINOMA, EXOCRINE PANCREAS: ACINAR ADENOMA OR ACINAR ADENOCARCINOMA OR DUCTAL ADEN): active; positive

Structure (SMILES): Oc1c(Cl)cc(Cl)c(Cl)c1Cc1c(O)c(Cl)cc(Cl)c1Cl
- carcinogen call (Species: RAT, Strain/Sex: F344/FEMALE, Route: ORAL, 17, 50, 150 PPM IN DIET, 17, 50, 150 PPM IN DIET): inactive; negative
- carcinogen call (Species: RAT, Strain/Sex: F344/MALE, Route: ORAL, 17, 50, 150 PPM IN DIET, 17, 50, 150 PPM IN DIET): inactive; negative
